Test results reported in publication PMC9228535, “Antistaphylococcal Activities and ADME-Related Properties of Chlorinated Arylcarbamoylnaphthalenylcarbamates” (Pharmaceuticals, 2022).
In brackets after ≈: the same amount, converted by molar mass.

Assays:
[1] = Lipophilicity determination by RP-HPLC (log k, log D); type: physicochemical
Protocol: Lipophilicity was measured by reversed-phase high performance liquid chromatography (RP-HPLC) under isocratic conditions with methanol as the organic modifier in the aqueous mobile phase and the logarithm of the capacity factor k was calculated, which is used as the lipophilicity index converted to the log P scale. In addition to the log k values, the logarithm of the distribution coefficient DpH at pH 6.5 and 7.4 was determined to clarify the behavior of the compounds under physiological conditions and possible ionization. Instead of water, a buffer of suitable pH was used as part of the mobile phase. In addition to the above-mentioned experimental methods, commercially available ChemBioDraw Ultra 13.0 and ACD/Percepta ver. […] In addition to lipophilicity, other parameters discussed in Ro5, such as molecular weight, number of H-bond donors/acceptors, as well as parameters not reported in Ro5, but characterizing the physicochemical properties of the prepared molecules, such as number of rotatable bonds, were predicted using ACD/Percepta. Moreover, for each R substituent, bulkiness expressed as molar volume (MV [cm^3]), a parameter describing the tail length/branching of each carbamates, was calculated.
A HPLC separation module Agilent 1200 Series (Agilent Technologies, Santa Clara, CA, USA) equipped with a Dual Absorbance Detector (DAD SL G1315C, Agilent Technologies) was used. A chromatographic column Symmetry® C18 5 μm, 4.6 × 250 mm, Part No. W21751W016 (Waters Corp, Milford, MA, USA) was used. The HPLC separation process was monitored by ChemStation for LC 3D systems (Agilent Technologies). […] The total flow of the column was 1.0 mL/min, injection 20 μL, column temperature 40 °C, and sample temperature 10 °C. The detection wavelength of 210 nm was chosen. A KI methanolic solution was used for the determination of the dead times (tD). Retention times (tR) were measured in minutes. The capacity factors k were calculated according to the formula k = (tR − tD)/tD, where tR is the retention time of the solute, and tD is the dead time obtained using an unretained analyte. The distribution coefficients DpH were calculated according to the formula DpH = (tR − tD)/tD. Each experiment was repeated three times.

[2] = tested on: Enterococcus faecalis ATCC 29212; test: MIC, microtitration broth method; type: cell-based
Protocol: In vitro antibacterial activity of the synthesized compounds was evaluated against representatives of multidrug-resistant bacteria, three clinical isolates of methicillin-resistant S. aureus: clinical isolate of animal origin, MRSA 63718 (Department of Infectious Diseases and Microbiology, Faculty of Veterinary Medicine, University of Veterinary Sciences Brno, Czech Republic), carrying the mecA gene; and MRSA SA 630 [46] and MRSA SA 3202 [46] (National Institute of Public Health, Prague, Czech Republic), both of human origin. Suspected colonies were confirmed by PCR; a 108bp fragment specific for S. aureus was detected. All isolates were tested for the presence of the mecA gene encoding methicillin resistance. […] Vancomycin-susceptible methicillin-susceptible S. aureus (VS-MSSA) ATCC 29213, obtained from the American Type Culture Collection, was used as the reference and quality control strain. Enterococcus faecalis ATCC 29212 was obtained from the American Type Culture Collection and used as the reference and quality control strain.
The minimum inhibitory concentrations (MICs) were evaluated by the microtitration broth method according to the CLSI [64, 65] with some modifications. The compounds were dissolved in DMSO (Sigma, St. Louis, MO, USA) to get a concentration […] and diluted in a microtitration plate in an appropriate medium, namely, Cation Adjusted Mueller–Hinton (CaMH, Oxoid, Basingstoke, UK) for staphylococci (S. aureus ATCC 29213, clinical isolates of MRSA 63718, SA 630, and SA 3202) and brain heart infusion (BHI, Oxoid) for E. faecalis ATCC 29212, to reach the final concentration of 256-0.125 µg/mL. The plate was inoculated by the tested microorganisms. The final concentration of bacterial cells was 10^5 for bacteria. Ampicillin (Sigma) was used as reference drugs. A drug-free control and a sterility control were included. The plates were incubated for 24 h at 37 °C for staphylococci and E. faecalis ATCC 29212 (stability evaluation of the carbamates, see Supplementary materials, Table S1). […] The experiments were repeated three times.

THP-1 cells = test: In vitro cytotoxicity assay (WST-1); type: cell-based; settings: Homo sapiens, THP-1, 24 h
Protocol: Preliminary in vitro cytotoxicity screening of the investigated compounds was performed using human monocytic leukemia THP-1 cells, see Table 2. The ability to inhibit the human cancer cell viability (IC50) of the compounds was compared to camptothecin toxicity (0.16 ± 0.07 μM). […] However, these values are up to two orders of magnitude higher than their significant antistaphyloccocal concentrations. This fact is also taken into account in the calculated selectivity index (SI), Table 2, where for only three compounds the SI is <20, while for the rest of the agents SI is >20, and for some derivatives even 100 and more. Thus, based on all these observations, it can be concluded that all the tested derivatives can be considered as in vitro non-toxic compounds for the subsequent design of new therapeutic agents.
The human THP-1 cell line (European Collection of Cell Cultures, Salisbury, UK) was cultured in RPMI 1640 medium supplemented with 10% fetal bovine serum, 2% L-glutamine, 1% penicillin, and streptomycin at 37 °C with 5% CO2. Cells were passaged at approximately 1-week intervals. All the tested compounds were prepared and dissolved as mentioned in our previous work.

For `CCNC(=O)Oc1c(C(=O)Nc2cc(Cl)c(Cl)cc2Cl)ccc2ccccc12` [Compound 2, 2-[N-(2,4,5-Trichlorophenyl)carbamoyl]naphthalen-1-yl ethyl carbamate], the “lipophilicity (experimental log k/log D, approximate)” value [1] was “ca. 0.83”, the “log D6.5” value ([1]; RP-HPLC, MeOH 72%/acetate buffered saline pH 6.5) was 0.8294 and the “log D7.4” value ([1]; RP-HPLC, MeOH 72%/acetate buffered saline pH 7.4) was 0.8339. The log k ([1]; RP-HPLC, MeOH 72%/water 28%) was 0.8249, the “anti-enterococcal activity (in words)” value ([2]; E. faecalis ATCC 29212) was “medium activity” and the MIC ([2]; Enterococcus faecalis, ATCC29212, 24 h) was 36.6 µM (≈ 16 µg/mL). For the same molecule, the IC50 (THP-1 cells) was 2850 ± 170 nM.
